Tested on: Endogenous Huntingtin Protein
Test: Endogenous Huntingtin Protein Assay (Meso Scale Discovery ELISA-based electrochemiluminescence)
Type: cell-based
Conditions: MSD plates coated with MW1 (expanded polyglutamine) or MAB2166 capture antibody; lysates
Method: Compounds of Formula (I) were tested using the Meso Scale Discovery (MSD) Assay provided in International Application No. PCT/US2016/066042, filed on Dec. 11, 2016 and claiming priority to United States Provisional Application U.S. 62/265,652 filed on Dec. 10, 2015, the entire contents of which are incorporated herein by reference.
The Endogenous Huntingtin Protein assay used in Example 1 was developed using the ELISA-based MSD electrochemiluminescence assay platform.
Endogenous Huntingtin Protein Assay
Meso Scale Discovery (MSD) 96-well or 384-well plates were coated overnight at 4° C. with MW1 (expanded polyglutamine) or MAB2166 monoclonal antibody (for capture) at a concentration of 1 μg/mL in PBS (30 μL per well). Plates were then washed three times with 300 μL wash buffer (0.05% Tween-20 in PBS) and blocked (100 μL blocking buffer; 5% BSA in PBS) for 4-5 hours at room temperature with rotational shaking and then washed three times with wash buffer.
Samples (25 μL) were transferred to the antibody-coated MSD plate and incubated overnight at 4° C. After removal of the lysates, the plate was washed three times with wash buffer, and 25 μL of #5656S (Cell signaling; rabbit monoclonal) secondary antibody (diluted to 0.25 μg/mL in 0.05% Tween-20 in blocking buffer) was added to each well and incubated with shaking for 1 Hour at room temperature. Following incubation with the secondary antibody, the wells were rinsed with wash buffer after which 25 μL of goat anti-rabbit SULFO TAG secondary detection antibody (required aspect of the MSD system) (diluted to 0.25 μg/mL in 0.05% Tween-20 in blocking buffer) was added to each well and incubated with shaking for 1 hour at room temperature. After rinsing three times with wash buffer, 150 μL of read buffer T with surfactant (MSD) were added to each empty well, and the plate was imaged on a SI 6000 imager (MSD) according to manufacturers' instructions provided for 96- or 384-well plates.

Row | IC50 [nM] | Structure (SMILES)
1 | 100 to 500 | CC1(C)CC(n2cnc3nc(-c4ccc(-c5cn[nH]c5)cc4O)cnc32)CC(C)(C)N1 [Cpd 1, 5-(1H-pyrazol-4-yl)-2-[1-(2,2,6,6-tetramethylpiperidin-4-yl)-1H-imidazo[4,5-b]pyrazin-5-yl]phenol]
2 | 100 to 500 | CC1(C)CC(n2cnc3nc(-c4cc(F)c(-c5cn[nH]c5)cc4F)cnc32)CC(C)(C)N1 [Cpd 2, 5-[2,5-difluoro-4-(1H-pyrazol-4-yl)phenyl]-1-(2,2,6,6-tetramethylpiperidin-4-yl)-1H-imidazo[4,5-b]pyrazine]
3 | ≤ 100 | CC1(C)CC(n2cnc3cc(-c4ccc(-c5cn[nH]c5)cc4O)nnc32)CC(C)(C)N1 [Cpd 3, 5-(1H-pyrazol-4-yl)-2-[7-(2,2,6,6-tetramethylpiperidin-4-yl)-7H-imidazo[4,5-c]pyridazin-3-yl]phenol]
4 | ≤ 100 | CC1(C)CC(n2cnc3cc(-c4cc(F)c(-c5cn[nH]c5)cc4F)nnc32)CC(C)(C)N1 [Cpd 4, 3-[2,5-difluoro-4-(1H-pyrazol-4-yl)phenyl]-7-(2,2,6,6-tetramethylpiperidin-4-yl)-7H-imidazo[4,5-c]pyridazine]
5 | ≤ 100 | Cc1nc2cc(-c3ccc(-c4cn[nH]c4)cc3O)nnc2n1C1CC(C)(C)NC(C)(C)C1 [Cpd 5, 2-[6-methyl-7-(2,2,6,6-tetramethylpiperidin-4-yl)-7H-imidazo[4,5-c]pyridazin-3-yl]-5-(1H-pyrazol-4-yl)phenol]
6 | 500 to 1000 | Cc1nc2cc(-c3cc(F)c(-c4cn[nH]c4)cc3F)nnc2n1C1CC(C)(C)NC(C)(C)C1 [Cpd 6, 3-[2,5-difluoro-4-(1H-pyrazol-4-yl)phenyl]-6-methyl-7-(2,2,6,6-tetramethylpiperidin-4-yl)-7H-imidazo[4,5-c]pyridazine]
7 | ≤ 100 | CC1(C)CC(n2nnc3cc(-c4ccc(-c5cn[nH]c5)cc4O)nnc32)CC(C)(C)N1 [Cpd 7, 5-(1H-pyrazol-4-yl)-2-[3-(2,2,6,6-tetramethylpiperidin-4-yl)-3H-[1,2,3]triazolo[4,5-c]pyridazin-6-yl]phenol]
8 | 1000 to 3000 | CC1(C)C=C(n2ccc3nc(-c4ccc(-c5cn[nH]c5)cc4O)cnc32)CC(C)(C)N1 [Cpd 8, 5-(1H-pyrazol-4-yl)-2-[5-(2,2,6,6-tetramethyl-1,2,3,6-tetrahydropyridin-4-yl)-5H-pyrrolo[2,3-b]pyrazin-2-yl]phenol]
9 | 1000 to 3000 | CC1(C)CC(n2c(O)nc3cc(-c4ccc(-c5cn[nH]c5)cc4O)nnc32)CC(C)(C)N1 [Cpd 9, 3-[2-hydroxy-4-(1H-pyrazol-4-yl)phenyl]-7-(2,2,6,6-tetramethylpiperidin-4-yl)-7H-imidazo[4,5-c]pyridazin-6-ol]
10 | ≤ 100 | CC1(C)CC(n2ccc3nc(-c4ccc(-c5cn[nH]c5)cc4O)cnc32)CC(C)(C)N1 [Cpd 10, 5-(1H-pyrazol-4-yl)-2-[5-(2,2,6,6-tetramethylpiperidin-4-yl)-5H-pyrrolo[2,3-b]pyrazin-2-yl]phenol]
11 | 100 to 500 | Oc1cc(-c2cn[nH]c2)ccc1-c1cc2[nH]cc(C3CCNCC3)c2nn1 [Cpd 12, 2-[7-(piperidin-4-yl)-5H-pyrrolo[3,2-c]pyridazin-3-yl]-5-(1H-pyrazol-4-yl)phenol]
12 | 100 to 500 | CC1(C)CC(n2nnc3cc(-c4ccc(-c5cn[nH]c5)c(F)c4F)nnc32)CC(C)(C)N1 [Cpd 13, 6-[2,3-difluoro-4-(1H-pyrazol-4-yl)phenyl]-3-(2,2,6,6-tetramethylpiperidin-4-yl)-3H-[1,2,3]triazolo[4,5-c]pyridazine]
13 | 100 to 500 | CC1(C)CC(n2nnc3cc(-c4cc(F)c(-c5cn[nH]c5)cc4F)nnc32)CC(C)(C)N1 [Cpd 14, 6-[2,5-difluoro-4-(1H-pyrazol-4-yl)phenyl]-3-(2,2,6,6-tetramethylpiperidin-4-yl)-3H-[1,2,3]triazolo[4,5-c]pyridazine]
14 | 100 to 500 | CC1(C)CC(n2ccc3nc(-c4cc(F)c(-c5cn[nH]c5)cc4F)cnc32)CC(C)(C)N1 [Cpd 16, 2-[2,5-difluoro-4-(1H-pyrazol-4-yl)phenyl]-5-(2,2,6,6-tetramethylpiperidin-4-yl)-5H-pyrrolo[2,3-b]pyrazine]
15 | ≤ 100 | CC1(C)C=C(c2csc3cc(-c4ccc(-c5cn[nH]c5)cc4O)nnc23)CC(C)(C)N1 [Cpd 17, 5-(1H-pyrazol-4-yl)-2-[7-(2,2,6,6-tetramethyl-1,2,3,6-tetrahydropyridin-4-yl)thieno[3,2-c]pyridazin-3-yl]phenol]
16 | 1000 to 3000 | Oc1cc(-c2cn[nH]c2)ccc1-c1cnc2c(cnn2C2CCNCC2)n1 [Cpd 19, 2-[1-(piperidin-4-yl)-1H-pyrazolo[3,4-b]pyrazin-5-yl]-5-(1H-pyrazol-4-yl)phenol]
17 | ≤ 100 | CC1(C)C=C(c2c[nH]c3cc(-c4ccc(-c5cn[nH]c5)cc4O)nnc23)CC(C)(C)N1 [Cpd 20, 5-(1H-pyrazol-4-yl)-2-[7-(2,2,6,6-tetramethyl-1,2,3,6-tetrahydropyridin-4-yl)-5H-pyrrolo[3,2-c]pyridazin-3-yl]phenol]
18 | 1000 to 3000 | Oc1cc(-c2cn[nH]c2)ccc1-c1cc2cnn(C3CCNCC3)c2nn1 [Cpd 21, 2-[1-(piperidin-4-yl)-1H-pyrazolo[3,4-c]pyridazin-5-yl]-5-(1H-pyrazol-4-yl)phenol]
19 | ≤ 100 | CC1(C)CC(n2ncc3cc(-c4ccc(-c5cn[nH]c5)cc4O)nnc32)CC(C)(C)N1 [Cpd 22, 5-(1H-pyrazol-4-yl)-2-[1-(2,2,6,6-tetramethylpiperidin-4-yl)-1H-pyrazolo[3,4-c]pyridazin-5-yl]phenol]
20 | ≤ 100 | CC1(C)CC(N2CCc3cc(-c4ccc(-c5cn[nH]c5)cc4O)nnc32)CC(C)(C)N1 [Cpd 23, 5-(1H-pyrazol-4-yl)-2-[7-(2,2,6,6-tetramethylpiperidin-4-yl)-6,7-dihydro-5H-pyrrolo[2,3-c]pyridazin-3-yl]phenol]
21 | ≤ 100 | CC1(C)CC(c2csc3cc(-c4ccc(-c5cn[nH]c5)cc4O)nnc23)CC(C)(C)N1 [Cpd 24, 5-(1H-pyrazol-4-yl)-2-[7-(2,2,6,6-tetramethylpiperidin-4-yl)thieno[3,2-c]pyridazin-3-yl]phenol]
22 | ≤ 100 | CC1(C)CC(n2ccc3cc(-c4ccc(-c5cn[nH]c5)cc4O)nnc32)CC(C)(C)N1 [Cpd 26, 5-(1H-pyrazol-4-yl)-2-[7-(2,2,6,6-tetramethylpiperidin-4-yl)-7H-pyrrolo[2,3-c]pyridazin-3-yl]phenol]
23 | ≤ 100 | CC1(C)CC(c2c[nH]c3cc(-c4ccc(-c5cn[nH]c5)cc4O)nnc23)CC(C)(C)N1 [Cpd 31, 5-(1H-pyrazol-4-yl)-2-[7-(2,2,6,6-tetramethylpiperidin-4-yl)-5H-pyrrolo[3,2-c]pyridazin-3-yl]phenol]
24 | 100 to 500 | CC1(C)CC(N2CCc3cc(-c4ccc(-c5cn[nH]c5)c(F)c4F)nnc32)CC(C)(C)N1 [Cpd 32, 3-[2,3-difluoro-4-(1H-pyrazol-4-yl)phenyl]-7-(2,2,6,6-tetramethylpiperidin-4-yl)-6,7-dihydro-5H-pyrrolo[2,3-c]pyridazine]

Row | Structure (SMILES) | IC50 [nM]
25 | Oc1cc(-c2cn[nH]c2)ccc1-c1cc2[nH]cc(C3=CCNCC3)c2nn1 [Cpd 11, 5-(1H-pyrazol-4-yl)-2-[7-(1,2,3,6-tetrahydropyridin-4-yl)-5H-pyrrolo[3,2-c]pyridazin-3-yl]phenol] | 1000 to 3000
26 | Oc1cc(-c2cn[nH]c2)ccc1-c1cc2scc(C3=CCNCC3)c2nn1 [Cpd 15, 5-(1H-pyrazol-4-yl)-2-[7-(1,2,3,6-tetrahydropyridin-4-yl)thieno[3,2-c]pyridazin-3-yl]phenol] | 1000 to 3000
27 | Oc1cc(-c2cn[nH]c2)ccc1-c1cc2scc(C3=CC4CCC(C3)N4)c2nn1 (centres unmarked) [Cpd 18, 2-[7-(8-azabicyclo[3.2.1]oct-2-en-3-yl)thieno[3,2-c]pyridazin-3-yl]-5-(1H-pyrazol-4-yl)phenol] | ≤ 100
28 | Oc1cc(-c2cn[nH]c2)ccc1-c1cc2scc(C3=CC4COCC(C3)N4)c2nn1 (centres unmarked) [Cpd 25, 2-[7-(3-oxa-9-azabicyclo[3.3.1]non-6-en-7-yl)thieno[3,2-c]pyridazin-3-yl]-5-(1H-pyrazol-4-yl)phenol] | ≤ 100
29 | Oc1cc(-c2cn[nH]c2)ccc1-c1cc2[nH]cc(C3=CC4CCC(C3)N4)c2nn1 (centres unmarked) [Cpd 27, 2-[7-(8-azabicyclo[3.2.1]oct-2-en-3-yl)-5H-pyrrolo[3,2-c]pyridazin-3-yl]-5-(1H-pyrazol-4-yl)phenol] | ≤ 100
30 | Oc1cc(-c2cn[nH]c2)ccc1-c1cc2[nH]cc(C3=CC4COCC(C3)N4)c2nn1 (centres unmarked) [Cpd 28, 2-[7-(3-oxa-9-azabicyclo[3.3.1]non-6-en-7-yl)-5H-pyrrolo[3,2-c]pyridazin-3-yl]-5-(1H-pyrazol-4-yl)phenol] | 1000 to 3000
31 | Oc1cc(-c2cn[nH]c2)ccc1-c1cc2[nH]cc(C3CC4CCC(C3)N4)c2nn1 (centres unmarked) [Cpd 29, 2-[7-(8-azabicyclo[3.2.1]oct-3-yl)-5H-pyrrolo[3,2-c]pyridazin-3-yl]-5-(1H-pyrazol-4-yl)phenol] | ≤ 100
32 | Oc1cc(-c2cn[nH]c2)ccc1-c1cc2[nH]cc(C3CC4COCC(C3)N4)c2nn1 (centres unmarked) [Cpd 30, 2-[7-(3-oxa-9-azabicyclo[3.3.1]non-7-yl)-5H-pyrrolo[3,2-c]pyridazin-3-yl]-5-(1H-pyrazol-4-yl)phenol] | 500 to 1000
